Experimental data taken from BindingDB's records for doi:10.1007/s00044-011-9594-4 (n/a, 2012).

target: Telomerase reverse transcriptase (Homo sapiens, UniProt O14746); assay: Inhibition of telomerase (unknown origin)
Sequence (O14746 whole entry): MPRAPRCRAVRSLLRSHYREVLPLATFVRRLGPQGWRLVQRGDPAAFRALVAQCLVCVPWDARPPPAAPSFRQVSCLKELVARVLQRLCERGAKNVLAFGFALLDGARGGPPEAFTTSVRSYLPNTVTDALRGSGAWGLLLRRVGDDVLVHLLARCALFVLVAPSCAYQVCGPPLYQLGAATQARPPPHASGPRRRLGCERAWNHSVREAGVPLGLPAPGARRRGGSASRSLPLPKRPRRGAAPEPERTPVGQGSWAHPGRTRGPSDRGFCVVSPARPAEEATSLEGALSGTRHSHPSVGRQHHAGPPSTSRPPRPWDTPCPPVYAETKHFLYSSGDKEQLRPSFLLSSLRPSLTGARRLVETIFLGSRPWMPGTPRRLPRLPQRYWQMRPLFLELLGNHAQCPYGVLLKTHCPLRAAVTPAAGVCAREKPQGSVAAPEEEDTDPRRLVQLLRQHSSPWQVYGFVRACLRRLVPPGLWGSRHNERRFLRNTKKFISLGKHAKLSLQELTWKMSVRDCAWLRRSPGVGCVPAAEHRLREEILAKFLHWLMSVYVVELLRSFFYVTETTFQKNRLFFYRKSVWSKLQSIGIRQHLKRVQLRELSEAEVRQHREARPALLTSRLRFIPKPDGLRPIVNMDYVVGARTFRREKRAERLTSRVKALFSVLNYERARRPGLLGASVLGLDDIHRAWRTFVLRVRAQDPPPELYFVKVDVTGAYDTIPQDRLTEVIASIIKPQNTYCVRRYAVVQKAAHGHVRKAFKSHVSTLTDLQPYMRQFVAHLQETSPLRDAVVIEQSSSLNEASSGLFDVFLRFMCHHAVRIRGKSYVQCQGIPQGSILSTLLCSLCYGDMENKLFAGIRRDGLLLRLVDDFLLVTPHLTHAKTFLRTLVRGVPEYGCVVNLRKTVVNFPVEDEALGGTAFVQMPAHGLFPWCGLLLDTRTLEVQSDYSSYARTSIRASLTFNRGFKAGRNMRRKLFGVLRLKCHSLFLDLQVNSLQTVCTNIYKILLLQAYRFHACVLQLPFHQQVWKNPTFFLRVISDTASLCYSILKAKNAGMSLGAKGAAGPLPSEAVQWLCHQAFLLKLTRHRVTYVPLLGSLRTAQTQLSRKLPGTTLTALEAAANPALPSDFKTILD

IC50 [nM] | SMILES
28.2 | CN(C)CCCNCc1ccc2nc3ccc4cc5cc(CNCCCN(C)C)ccc5nc4c3cc2c1
40.8 | CSc1nc(Nc2ccc3nc(C)cc(N(C)C)c3c2)nc(Nc2ccc3nc(C)cc(N(C)C)c3c2)n1
5.01 | CC1=C2NC(=C3CSC(=N3)c3coc(n3)-c3coc(n3)-c3coc(n3)-c3coc(n3)-c3coc(n3)-c3nc2oc3C)O1 [telomestatin]
